According to paper PMC6028903, “Solubility Thermodynamics of CyMe 4 -BTBP in Various Diluents Mixed with TBP” (Journal of Solution Chemistry, 2018):
Converted amounts (≈) assume the structure as drawn. Like-named read-outs stand apart in the source and are kept apart here. Marks after values point to notes of the source that are not given here. One block for each compound: values may come before it.

Assays:
[1] = literature; cited from earlier work
[2] = design: method as in earlier work; settings: literature; cited from earlier work
[3] = literature; cited from earlier work; remark: listed apart in the source
[4] = 298 K; cited from earlier work
[5] = Solubility of CyMe4-BTBP in GANEX solvents (70% vol diluent, 30% vol TBP), UV-VIS of the Fe2+ complex; format: physicochemical; settings: organic solvent or mixture, thermodynamic from solid
[6] = Dissolution thermodynamics of CyMe4-BTBP (van't Hoff linear fit and heat capacity calculation); format: physicochemical; settings: for c (288 K), calculated CyMe 4 -BTBP concentration / c (298 K), calculated CyMe 4 -BTBP concentration / c (308 K), calculated CyMe 4 -BTBP concentration: calculated from linear fits; for ΔG^0 (288 K) / ΔG^0 (298 K) / ΔG^0 (308 K): from linear fits; for ΔH^0 / ΔS^0: calculated using ΔCp; for ΔH^0 linear / ΔS^0 linear: linear fit
[7] = 10 mmol/L CyMe4-BTBP, cited from earlier work
[8] = design: method as in doi:10.1080/07366299.2011.539462; settings: cited from earlier work
[9] = Surface tension against air (du Noüy ring method); format: physicochemical; settings: 294 K, 0.1 MPa
Experimental: (§1) The density, ρ , and surface tension, γ , against air (using the du Noüy ring method) for the different solvents was measured at room temperature (293–295 K) using a tensiometer (Sigma 700, Attension). The surface tensiometer ring was lowered into the organic phase until it was totally immersed. The tensiometer then measured the surface tension automatically by slowly pulling out the ring of the organic phase and measuring the force required to detach the ring from the organic surface. The density was measured using the same tensiometer and a calibrated density probe.

[10] = Density (tensiometer with density probe); format: physicochemical; settings: 294 K, 0.1 MPa
Experimental: as §1

[11] = Cyclohex./TBP b, pre-equilibrated with HNO3
[12] = Cyclohex./TBP b, pre-equilibrated
[13] = FS-13/TBP b, pre-equilibrated with HNO3
[14] = Octanol/TBP b, pre-equilibrated with HNO3
[15] = Octanol/TBP b, pre-equilibrated

SMILES: O=C1CCCCC1 [Cyclohexanone, cyclohexanone]
Surface tension [1]: 34.4^a mN · m ^-1
Density [2]: 0.95^b g · cm ^-3
Flash point [3]: 317 K^a
Solvent in water [4]: 2.3^b wt%
Water in solvent [4]: 8.0^b wt%

solubility at 3 days ([5]; GANEX solvent 1-octanol/TBP, 25 °C, Octanol/TBP, 70% vol diluent and 30% vol TBP, 298 K, read-out: CyMe 4 -BTBP solubility at 298 K): 13 mM (≈ 6.95 mg/mL)
solubility at 3 days ([5]; GANEX solvent FS-13/TBP, 25 °C, FS-13/TBP, 70% vol diluent and 30% vol TBP, 298 K, read-out: CyMe 4 -BTBP solubility at 298 K): 130 mM (≈ 69.5 mg/mL)
solubility at 3 days ([5]; GANEX solvent FS-13/TBP, 70% vol FS-13 and 30% vol TBP, 4 mol/L NaCl in Milli-Q water instead of nitric acid, single sample, read-out: CyMe 4 -BTBP solubility): 20 mM (≈ 10.7 mg/mL)
solubility at 3 days ([5]; GANEX solvent FS-13/TBP, 70% vol FS-13 and 30% vol TBP, 4 mol/L hydrochloric acid instead of nitric acid, single sample, read-out: CyMe 4 -BTBP solubility): 30 mM (≈ 16 mg/mL)
solubility at 3 days ([5]; GANEX solvent FS-13/TBP, 70% vol FS-13 and 30% vol TBP, Milli-Q water instead of nitric acid, single sample, read-out: CyMe 4 -BTBP solubility): 15 mM (≈ 8.02 mg/mL)
solubility at 3 days ([5]; GANEX solvent cyclohexanone/TBP, 25 °C, Cyclohex./TBP, 70% vol diluent and 30% vol TBP, 298 K, read-out: CyMe 4 -BTBP solubility at 298 K): 180 mM (≈ 96.2 mg/mL)
c (288 K), calculated CyMe 4 -BTBP concentration ([6]; Cyclohex./TBP a, pristine): 13 mmol · L ^-1
ΔG^0 (288 K) ([6]; Cyclohex./TBP a, pristine): 10.5 kJ · mol ^-1
c (298 K), calculated CyMe 4 -BTBP concentration ([6]; Cyclohex./TBP a, pristine): 27 mmol · L ^-1
ΔG^0 (298 K) ([6]; Cyclohex./TBP a, pristine): 8.9 kJ · mol ^-1
c (308 K), calculated CyMe 4 -BTBP concentration ([6]; Cyclohex./TBP a, pristine): 56 mmol · L ^-1
ΔG^0 (308 K) ([6]; Cyclohex./TBP a, pristine): 7.4 kJ · mol ^-1
ΔH^0 ([6]; Cyclohex./TBP a, pristine): 53 kJ · mol ^-1
ΔS^0 ([6]; Cyclohex./TBP a, pristine): 150 J · mol ^-1· K ^-1
ΔH^0 linear ([6]; Cyclohex./TBP a, pristine): 54.4 ± 2.6 kJ · mol ^-1
ΔS^0 linear ([6]; Cyclohex./TBP a, pristine): 152.4 ± 1.9 J · mol ^-1· K ^-1
ΔCp [6, 11]: 1.4 kJ · mol ^-1· K ^-1
ΔH^0 [6, 11]: 15 kJ · mol ^-1
ΔS^0 [6, 11]: 38 J · mol ^-1· K ^-1
ΔH^0 linear [6, 11]: 13.3 ± 0.5 kJ · mol ^-1
ΔS^0 linear [6, 11]: 30.8 ± 0.3 J · mol ^-1· K ^-1
c (288 K), calculated CyMe 4 -BTBP concentration [6, 12]: 160 mmol · L ^-1
ΔG^0 (288 K) [6, 12]: 4.4 kJ · mol ^-1
c (298 K), calculated CyMe 4 -BTBP concentration [6, 12]: 190 mmol · L ^-1
ΔG^0 (298 K) [6, 12]: 4.1 kJ · mol ^-1
c (308 K), calculated CyMe 4 -BTBP concentration [6, 12]: 230 mmol · L ^-1
ΔG^0 (308 K) [6, 12]: 3.8 kJ · mol ^-1
ΔCp ([6]; FS-13/TBP a, pristine): 1.3 kJ · mol ^-1· K ^-1
c (288 K), calculated CyMe 4 -BTBP concentration ([6]; FS-13/TBP a, pristine): 14 mmol · L ^-1
ΔG^0 (288 K) ([6]; FS-13/TBP a, pristine): 10.3 kJ · mol ^-1
c (298 K), calculated CyMe 4 -BTBP concentration ([6]; FS-13/TBP a, pristine): 16 mmol · L ^-1
ΔG^0 (298 K) ([6]; FS-13/TBP a, pristine): 10.3 kJ · mol ^-1
c (308 K), calculated CyMe 4 -BTBP concentration ([6]; FS-13/TBP a, pristine): 17 mmol · L ^-1
ΔG^0 (308 K) ([6]; FS-13/TBP a, pristine): 10.4 kJ · mol ^-1
ΔH^0 ([6]; FS-13/TBP a, pristine, 288, 298, 308 K): 8 kJ · mol ^-1
ΔH^0 linear ([6]; FS-13/TBP a, pristine): 8.3 ± 0.6 kJ · mol ^-1
ΔH^0 [6, 13]: 27 kJ · mol ^-1
ΔS^0 [6, 13]: 72 J · mol ^-1· K ^-1
ΔH^0 linear [6, 13]: 26.6 ± 0.3 kJ · mol ^-1
ΔS^0 linear [6, 13]: 72.1 ± 0.2 J · mol ^-1· K ^-1
c (288 K), calculated CyMe 4 -BTBP concentration ([6]; FS-13/TBP b, pre-equilibrated): 90 mmol · L ^-1
ΔG^0 (288 K) ([6]; FS-13/TBP b, pre-equilibrated): 5.8 kJ · mol ^-1
c (298 K), calculated CyMe 4 -BTBP concentration ([6]; FS-13/TBP b, pre-equilibrated): 130 mmol · L ^-1
ΔG^0 (298 K) ([6]; FS-13/TBP b, pre-equilibrated): 5.1 kJ · mol ^-1
c (308 K), calculated CyMe 4 -BTBP concentration ([6]; FS-13/TBP b, pre-equilibrated): 180 mmol · L ^-1
ΔG^0 (308 K) ([6]; FS-13/TBP b, pre-equilibrated): 4.4 kJ · mol ^-1
c (288 K), calculated CyMe 4 -BTBP concentration ([6]; Octanol/TBP a, pristine): 3.4 mmol · L ^-1
ΔG^0 (288 K) ([6]; Octanol/TBP a, pristine): 13.6 kJ · mol ^-1
c (298 K), calculated CyMe 4 -BTBP concentration ([6]; Octanol/TBP a, pristine): 4.3 mmol · L ^-1
ΔG^0 (298 K) ([6]; Octanol/TBP a, pristine): 13.4 kJ · mol ^-1
c (308 K), calculated CyMe 4 -BTBP concentration ([6]; Octanol/TBP a, pristine): 5.5 mmol · L ^-1
ΔG^0 (308 K) ([6]; Octanol/TBP a, pristine): 13.3 kJ · mol ^-1
ΔH^0 ([6]; Octanol/TBP a, pristine): 17 kJ · mol ^-1
ΔS^0 ([6]; Octanol/TBP a, pristine): 14 J · mol ^-1· K ^-1
ΔH^0 linear ([6]; Octanol/TBP a, pristine): 18.0 ± 1.1 kJ · mol ^-1
ΔS^0 linear ([6]; Octanol/TBP a, pristine): 15.0 ± 0.8 J · mol ^-1· K ^-1
ΔCp [6, 14]: 2.3 kJ · mol ^-1· K ^-1
ΔH^0 [6, 14]: 21 kJ · mol ^-1
ΔS^0 [6, 14]: 33 J · mol ^-1· K ^-1
ΔH^0 linear [6, 14]: 20.0 ± 1.0 kJ · mol ^-1
ΔS^0 linear [6, 14]: 31.6 ± 0.7 J · mol ^-1· K ^-1
c (288 K), calculated CyMe 4 -BTBP concentration [6, 15]: 11 mmol · L ^-1
ΔG^0 (288 K) [6, 15]: 10.9 kJ · mol ^-1
c (298 K), calculated CyMe 4 -BTBP concentration [6, 15]: 14 mmol · L ^-1
ΔG^0 (298 K) [6, 15]: 10.6 kJ · mol ^-1
c (308 K), calculated CyMe 4 -BTBP concentration [6, 15]: 18 mmol · L ^-1
ΔG^0 (308 K) [6, 15]: 10.2 kJ · mol ^-1
SMILES: CC1(C)CCC(C)(C)c2nc(-c3cccc(-c4cccc(-c5nnc6c(n5)C(C)(C)CCC6(C)C)n4)n3)nnc21 [CyMe 4 -BTBP, 6,6′-bis(5,5,8,8-tetramethyl-5,6,7,8-tetrahydrobenzo[1,2,4]triazin-3-yl)[2,2′]bipyridine]
Americium distribution ratio at 298 K using 10 mmol · L ^-1 CyMe 4 -BTBP ([7]; Cyclohex./TBP): 160^b
Americium distribution ratio at 298 K using 10 mmol · L ^-1 CyMe 4 -BTBP ([7]; FS-13/TBP): 30^a
Americium distribution ratio at 298 K using 10 mmol · L ^-1 CyMe 4 -BTBP ([7]; Octanol/TBP): 30^c
Solubility in a nitric acid aqueous phase [8]: not soluble above the detection limit

Surface tension [9]: 26.6 ± 0.01 mN · m ^-1
Density [10]: 1.40 ± 0.01 g · cm ^-3
SMILES: O=S(=O)(c1ccccc1)C(F)(F)F [FS-13, phenyl trifluoromethyl sulfone]
Flash point [3]: 395 K^d

SMILES: CCCCCCCCO [1-Octanol, 1-octanol]
Surface tension [1]: 27.2^a mN · m ^-1
Density [2]: 0.83^b g · cm ^-3
Flash point [3]: 358 K^a
Solvent in water [4]: 0.0538^b wt%
Water in solvent [4]: 4.2^c wt%
